Experimental data: patent US20200024278A1, “COMPOSITION COMPRISING ANTIBIOTIC COMPOUND AND AN HETEROCYCLIC COMPOUND AND THEIR USE IN PREVENTING OR TREATING BACTERIAL INFECTIONS” (MUTABILIS, priority 2016, published 2020)
Where two headings read alike, the source gives them in different places.

What was measured:
Experiment in all cases: MIC, broth microdilution (CLSI), substance alone or ATB combined with compound at 4 or 8 μg/mL
[1] = system: ECO 190317; assay type: cell-based, E. coli; details: for MIC: Escherichia coli
How it was run: (§1)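 CLSI M7-A7 broth microdilution. ca-MHB, 5·10^5 CFU/mL log-phase cells, 16-20 h, 35° C, ambient air. Fosfomycin wells + 25 μg/ml glucose-6-phosphate. Visual MIC read.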

[2] = system: ECO UFR39; assay type: cell-based, E. coli; details: for MIC: Escherichia coli
How it was run: as §1

[3] = system: KPN 6299; assay type: cell-based, K. pneumoniae; details: for MIC: Klebsiella pneumoniae
How it was run: as §1

[4] = system: KPN BAA-1898; assay type: cell-based, K. pneumoniae; details: for MIC: Klebsiella pneumoniae, BAA1898
How it was run: as §1

[5] = system: KPN UFR42; assay type: cell-based, K. pneumoniae; details: for MIC: Klebsiella pneumoniae
How it was run: as §1

[6] = system: ECL P99; assay type: cell-based, E. cloacae; details: ECL P99
How it was run: as §1

`C=CC1=C(C(=O)O)N2C(=O)[C@@H](NC(=O)/C(=N\OCC(=O)O)c3csc(N)n3)[C@H]2SC1` [FIX, Cefixime, reference compound] was tested, and the “MIC ATB combined with Example 1 @8 μg/ml” value ([1]; ECO 190317, with Example 1 @8 μg/ml) was <0.031 µg/mL, the “MIC ATB combined with Example 1 @8 μg/ml” value ([1]; ECO 190317, with Example 1 at 8 μg/ml) was <0.031 µg/mL and the “MIC ATB combined with Example 7 @8 μgml” value ([1]; ECO 190317, with Example 7 at 8 μg/ml) was <0.031 µg/mL. For the same compound, the “MIC ATB combined with Example 9 @4 μg/ml” value ([1]; ECO 190317, with Example 9 @4 μg/ml) was <0.031 µg/mL, the “MIC ATB combined with Example 9 @4 μg/ml” value ([1]; ECO 190317, with Example 9 at 4 μg/ml) was <0.031 µg/mL and the “MIC ATB combined with Example 11 @8 μg/ml” value ([1]; ECO 190317, with Example 11 at 8 μg/ml) was <0.031 µg/mL. For the same compound, the “MIC ATB combined with Example 12 @8 μg/ml” value ([1]; ECO 190317, with Example 12 at 8 μg/ml) was <0.031 µg/mL, the “MIC ATB combined with Example 13 @8 μg/ml” value ([1]; ECO 190317, with Example 13 at 8 μg/ml) was <0.031 µg/mL and the “MIC ATB combined with Example 14 @8 μg/ml” value ([1]; ECO 190317, with Example 14 at 8 μg/ml) was <0.031 µg/mL. For the same compound, the “MIC ATB combined with Example 15 @4 μgml” value ([1]; ECO 190317, with Example 15 at 4 μg/ml) was <0.031 µg/mL, the “MIC ATB combined with Example 16 @4 μg/ml” value ([1]; ECO 190317, with Example 16 at 4 μg/ml) was <0.031 µg/mL and the MIC [1] was > 128 µg/mL. The MIC ([1]; ECO 190317, antibiotic alone, read-out: MIC ATB alone) was 256 µg/mL, the “MIC ATB combined with Example 1 @8 μg/ml” value ([2]; ECO UFR39, with Example 1 @8 μg/ml) was >32 µg/mL and the “MIC ATB combined with Example 1 @8 μg/ml” value ([2]; ECO UFR39, with Example 1 at 8 μg/ml) was >32 µg/mL. The “MIC ATB combined with Example 7 @8 μgml” value ([2]; ECO UFR39, with Example 7 at 8 μg/ml) was <0.031 µg/mL, the “MIC ATB combined with Example 9 @4 μg/ml” value ([2]; ECO UFR39, with Example 9 @4 μg/ml) was <0.031 µg/mL and the “MIC ATB combined with Example 9 @4 μg/ml” value ([2]; ECO UFR39, with Example 9 at 4 μg/ml) was <0.031 µg/mL. The “MIC ATB combined with Example 11 @8 μg/ml” value ([2]; ECO UFR39, with Example 11 at 8 μg/ml) was <0.031 µg/mL, the “MIC ATB combined with Example 12 @8 μg/ml” value ([2]; ECO UFR39, with Example 12 at 8 μg/ml) was <0.031 µg/mL and the “MIC ATB combined with Example 13 @8 μg/ml” value ([2]; ECO UFR39, with Example 13 at 8 μg/ml) was <0.031 µg/mL. The “MIC ATB combined with Example 14 @8 μg/ml” value ([2]; ECO UFR39, with Example 14 at 8 μg/ml) was <0.031 µg/mL, the “MIC ATB combined with Example 15 @4 μgml” value ([2]; ECO UFR39, with Example 15 at 4 μg/ml) was <0.031 µg/mL and the “MIC ATB combined with Example 16 @4 μg/ml” value ([2]; ECO UFR39, with Example 16 at 4 μg/ml) was <0.031 µg/mL. For the same compound, the MIC [2] was > 128 µg/mL, the MIC ([2]; ECO UFR39, antibiotic alone, read-out: MIC ATB alone) was > 512 µg/mL and the MIC ([3]; antibiotic alone, read-out: MIC ATB alone) was 16 µg/mL. The MIC ([3]; substance alone, read-out: MIC) was 16 µg/mL, the “MIC ATB combined with Example 1 @8 μg/ml” value ([3]; with Example 1 @8 μg/ml) was 0.063 µg/mL and the “MIC ATB combined with Example 1 @8 μg/ml” value ([3]; with Example 1 at 8 μg/ml) was 0.063 µg/mL. For the same compound, the “MIC ATB combined with Example 7 @8 μgml” value ([3]; with Example 7 at 8 μg/ml) was 0.063 µg/mL, the “MIC ATB combined with Example 9 @4 μg/ml” value ([3]; with Example 9 @4 μg/ml) was “<=0.031 μg/mL” and the “MIC ATB combined with Example 9 @4 μg/ml” value ([3]; with Example 9 at 4 μg/ml) was “<=0.031 μg/mL”. The “MIC ATB combined with Example 11 @8 μg/ml” value ([3]; with Example 11 at 8 μg/ml) was <0.031 µg/mL, the “MIC ATB combined with Example 12 @8 μg/ml” value ([3]; with Example 12 at 8 μg/ml) was <0.031 µg/mL and the “MIC ATB combined with Example 13 @8 μg/ml” value ([3]; with Example 13 at 8 μg/ml) was “<=0.031 μg/mL”. For the same compound, the “MIC ATB combined with Example 14 @8 μg/ml” value ([3]; with Example 14 at 8 μg/ml) was <0.031 µg/mL, the “MIC ATB combined with Example 15 @4 μgml” value ([3]; with Example 15 at 4 μg/ml) was <0.031 µg/mL and the “MIC ATB combined with Example 16 @4 μg/ml” value ([3]; with Example 16 at 4 μg/ml) was <0.031 µg/mL. For the same compound, the “MIC ATB combined with Example 1 @8 μg/ml” value ([4]; KPN BAA-1898, with Example 1 @8 μg/ml) was 0.25 µg/mL, the “MIC ATB combined with Example 1 @8 μg/ml” value ([4]; KPN BAA-1898, with Example 1 at 8 μg/ml) was 0.25 µg/mL and the “MIC ATB combined with Example 7 @8 μgml” value ([4]; KPN BAA-1898, with Example 7 at 8 μg/ml) was 0.25 µg/mL. The “MIC ATB combined with Example 9 @4 μg/ml” value ([4]; KPN BAA-1898, with Example 9 @4 μg/ml) was <0.031 µg/mL, the “MIC ATB combined with Example 9 @4 μg/ml” value ([4]; KPN BAA-1898, with Example 9 at 4 μg/ml) was <0.031 µg/mL and the “MIC ATB combined with Example 11 @8 μg/ml” value ([4]; KPN BAA-1898, with Example 11 at 8 μg/ml) was <0.031 µg/mL. The “MIC ATB combined with Example 12 @8 μg/ml” value ([4]; KPN BAA-1898, with Example 12 at 8 μg/ml) was <0.031 µg/mL, the “MIC ATB combined with Example 13 @8 μg/ml” value ([4]; KPN BAA-1898, with Example 13 at 8 μg/ml) was 0.5 µg/mL and the “MIC ATB combined with Example 14 @8 μg/ml” value ([4]; KPN BAA-1898, with Example 14 at 8 μg/ml) was <0.031 µg/mL. The “MIC ATB combined with Example 15 @4 μgml” value ([4]; KPN BAA-1898, with Example 15 at 4 μg/ml) was <0.031 µg/mL, the “MIC ATB combined with Example 16 @4 μg/ml” value ([4]; KPN BAA-1898, with Example 16 at 4 μg/ml) was <0.031 µg/mL and the MIC [4] was > 128 µg/mL. For the same compound, the MIC ([4]; KPN BAA-1898, antibiotic alone, read-out: MIC ATB alone) was > 512 µg/mL, the “MIC ATB combined with Example 1 @8 μg/ml” value ([5]; KPN UFR42, with Example 1 @8 μg/ml) was >32 µg/mL and the “MIC ATB combined with Example 1 @8 μg/ml” value ([5]; KPN UFR42, with Example 1 at 8 μg/ml) was >32 µg/mL. The “MIC ATB combined with Example 7 @8 μgml” value ([5]; KPN UFR42, with Example 7 at 8 μg/ml) was >32 µg/mL, the “MIC ATB combined with Example 9 @4 μg/ml” value ([5]; KPN UFR42, with Example 9 @4 μg/ml) was >32 µg/mL and the “MIC ATB combined with Example 9 @4 μg/ml” value ([5]; KPN UFR42, with Example 9 at 4 μg/ml) was >32 µg/mL. For the same compound, the “MIC ATB combined with Example 11 @8 μg/ml” value ([5]; KPN UFR42, with Example 11 at 8 μg/ml) was <0.031 µg/mL, the “MIC ATB combined with Example 12 @8 μg/ml” value ([5]; KPN UFR42, with Example 12 at 8 μg/ml) was <0.031 µg/mL and the “MIC ATB combined with Example 13 @8 μg/ml” value ([5]; KPN UFR42, with Example 13 at 8 μg/ml) was >32 µg/mL. For the same compound, the “MIC ATB combined with Example 14 @8 μg/ml” value ([5]; KPN UFR42, with Example 14 at 8 μg/ml) was <0.031 µg/mL, the “MIC ATB combined with Example 15 @4 μgml” value ([5]; KPN UFR42, with Example 15 at 4 μg/ml) was <0.031 µg/mL and the “MIC ATB combined with Example 16 @4 μg/ml” value ([5]; KPN UFR42, with Example 16 at 4 μg/ml) was <0.031 µg/mL. For the same compound, the MIC [5] was > 128 µg/mL, the MIC ([5]; KPN UFR42, antibiotic alone, read-out: MIC ATB alone) was > 256 µg/mL and the “MIC ATB combined with Example 1 @8 μg/ml” value ([6]; with Example 1 @8 μg/ml) was 0.063 µg/mL. The “MIC ATB combined with Example 1 @8 μg/ml” value ([6]; with Example 1 at 8 μg/ml) was 0.063 µg/mL, the “MIC ATB combined with Example 7 @8 μgml” value ([6]; with Example 7 at 8 μg/ml) was 16 µg/mL and the “MIC ATB combined with Example 9 @4 μg/ml” value ([6]; with Example 9 @4 μg/ml) was <0.031 µg/mL.
